Literature values in patent US20100113581A1, “COMBINATION THERAPIES FOR THE TREATMENT OF OBESITY” (priority 2008, published 2010).

Columns and labels:
[1] = published studies of weight loss medications
[2] = cyclodextrin derivatives

Molecule	weight loss of body weight for drug compared with placebo [1]	solubility in water [2]
CCN[C@@H](C)Cc1cccc(C(F)(F)F)c1 [dexfenfluramine]	about 5%	
CCCCCCCCCCC[C@@H](C[C@@H]1OC(=O)[C@H]1CCCCCC)OC(=O)[C@H](CC(C)C)NC=O [orlistat]	about 5%	
CC(C)CC(N(C)C)C1(c2ccc(Cl)cc2)CCC1 (centres unmarked) [sibutramine]	about 5%	
G-2-beta-cyclodextrin		147 % (w/v)
triacetyl-beta-cyclodextrin		insoluble
